Test results published in patent US8008491B2, “Substituted AZA-indoles as inhibitors of poly(ADP-ribose) polymerase (PARP)” (Aventis Pharmaceuticals, Inc., priority 2003, dated 2011).
Counter-ions that a name gives are not always drawn.

Target: human PARP (PARP1) (Homo sapiens, UniProt P09874)
Test: PARP enzyme assay of Table 3 (radioactive enzyme assay or 'ELISA' enzyme assay);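 further: Baculovirus-expressed PARP1 from insect cells, activity read as tritium from labeled NAD in acid-precipitated protein, or as biotin-NAD built into plate-bound histone by absorbance at 450 nm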
Conditions: IC50 (μM), fifty percent inhibitory concentration; recombinant human PARP
Method: The compounds of this invention are then tested with this enzyme preparation using either the radioactive enzyme assay or by the “ELISA” enzyme assay as set forth below.
Incorporation of radioactivity from labeled NAD into acid-precipitated protein is measured. The reaction mixture (volume 100 μL or 50 μL, in a test-tube or 96-well plate) contained 100 μg/mL calf thymus DNA (sonicated), 100 μg/mL histones, 100 mM Tris (pH 8.0), 1.0 mM DTT, 10 mM MgCl2, NAD (200 μm, 0.65 microcurie/mL), and varying amounts of enzyme. The reaction was incubated for 10 min at 37° C. or at room temperature for 60 min. The reaction was stopped and protein precipitated by addition of ice-cold trichloroacetic acid (TCA; 10% or 20% aqueous w/v). After brief storage in ice or at 4° C. for 2 hrs, the reaction mixture is filtered under vacuum through a glass fiber filter (2.5 cm disc, or 96-well filter plate). After washing with TCA and ethanol, the filter is dried and counted for tritium CPM after addition of scintillation fluid.
Incorporation of biotin-NAD into histone coated on plate is measured. A 96-well protein-binding EIA plate is coated with histone and blocked with bovine serum albumin. The reaction mixture (50 μL) contained DNA, buffer, enzyme, (test compound), and 250 μM of NAD and 5 μL of biotin-NAD (Trevigen). After reaction at room temperature the wells are washed and treated with Extravidin (Sigma). After incubation and washing color is developed with the peroxidase substrate TMB (Sigma). The TMB reaction is quenched with 2M sulfurric acid and the absorbance at 450 nm is read.

Chain of human PARP (PARP1) (P09874 whole entry): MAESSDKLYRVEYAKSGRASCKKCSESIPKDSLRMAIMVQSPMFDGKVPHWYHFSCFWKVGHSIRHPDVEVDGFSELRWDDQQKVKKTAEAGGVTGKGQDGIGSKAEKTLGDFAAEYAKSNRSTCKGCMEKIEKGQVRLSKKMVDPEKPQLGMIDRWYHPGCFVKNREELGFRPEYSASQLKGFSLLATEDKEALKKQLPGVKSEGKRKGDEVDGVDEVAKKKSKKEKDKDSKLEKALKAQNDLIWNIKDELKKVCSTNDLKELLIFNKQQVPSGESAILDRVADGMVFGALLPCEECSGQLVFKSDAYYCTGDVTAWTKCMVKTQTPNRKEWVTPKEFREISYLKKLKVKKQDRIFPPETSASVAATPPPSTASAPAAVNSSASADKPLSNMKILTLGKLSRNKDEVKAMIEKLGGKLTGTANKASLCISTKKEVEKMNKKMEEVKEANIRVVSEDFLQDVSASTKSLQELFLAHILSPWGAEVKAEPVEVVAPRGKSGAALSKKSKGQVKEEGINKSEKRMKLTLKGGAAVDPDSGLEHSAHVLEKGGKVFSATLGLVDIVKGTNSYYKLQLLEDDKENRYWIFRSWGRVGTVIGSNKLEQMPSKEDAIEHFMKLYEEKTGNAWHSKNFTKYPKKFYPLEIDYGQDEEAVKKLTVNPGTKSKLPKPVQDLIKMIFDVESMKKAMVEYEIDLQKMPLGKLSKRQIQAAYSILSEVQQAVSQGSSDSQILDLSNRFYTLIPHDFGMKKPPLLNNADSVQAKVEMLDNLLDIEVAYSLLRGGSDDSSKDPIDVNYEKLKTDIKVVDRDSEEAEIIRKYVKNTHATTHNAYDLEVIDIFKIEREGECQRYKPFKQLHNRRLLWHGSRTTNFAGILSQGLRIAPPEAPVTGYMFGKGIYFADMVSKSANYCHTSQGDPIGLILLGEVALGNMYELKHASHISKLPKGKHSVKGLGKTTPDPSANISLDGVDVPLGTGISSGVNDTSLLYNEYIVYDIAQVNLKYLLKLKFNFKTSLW

Compound | IC50 [µM]
CC(C)(C)OC(=O)N1CC2CC1CN2c1c(C=O)c2ccccc2n1-c1ccccc1 (centres unmarked) [Example 45, 5-(3-Formyl-1-phenyl-1H-indol-2yl)-2,5-diazabicyclo[2.2.1]heptane-2-carboxylic acid tert-butyl ester] | 5.1
COc1cccc(-n2c(N3CCNCC3)c(C=O)c3ccccc32)c1 [Example 11B-8, 2-(Piperazin-1-yl)-1-(3-methoxyphenyl)-1H-indole-3-carboxaldehyde] | 5.5
O=Cc1c(N2CCNCC2)n(-c2cccc(CO)c2)c2ccccc12 [Example 57, 1-(3-Hydroxymethylphenyl)-2-(piperazin-1-yl)-1H-indole-3-carboxaldehyde] | 1.4
O=Cc1cccc(-n2c(N3CCNCC3)c(C=O)c3ccccc32)c1 [Example 46] | 0.85
O=Cc1c(N2CCNCC2)n(-c2ccc(Cl)cc2)c2ccccc12 [Example 11B-6, 2-(Piperazin-1-yl)-1-(4-chlorophenyl)-1H-indole-3-carboxaldehyde] | 4
O=Cc1c(N2CC3CC2CN3)n(-c2ccccc2)c2ccccc12 (centres unmarked) [Example 21] | 5.1
CSc1ccc(-n2c(N3CCNCC3)c(C=O)c3ccccc32)cc1 [Example 11B-9, 2-(Piperazin-1-yl)-1-(4-thiomethylphenyl)-1H-indole-3-carboxaldehyde] | 4
O=Cc1c(N2CCNCC2)n(-c2ccc(-c3ccccc3)cc2)c2ccccc12 [Example 47, 1-(Biphenyl-4-yl)-2-piperazin-1-yl-1H-indole-3-carboxaldehyde Hydrochloride] | 6.9
Cc1cccc(-n2c(N3CCNCC3)c(C=O)c3ccccc32)c1 [Example 11B-11, 2-(Piperazin-1-yl)-1-(3-methylphenyl)-1H-indole-3-carboxaldehyde] | 3
CC(=O)Nc1cccc(-n2c(N3CCNCC3)c(C=O)c3ccccc32)c1 [Example 62, N-{3-[3-Formyl-2-(piperazin-1-yl)-indol-1-yl]phenyl}-acetamide Hydrochloride] | 0.99
CN(C)c1ccc(-n2c(N3CCNCC3)c(C=O)c3ccccc32)cc1 [Example 51, 1-(4-Dimethylaminophenyl)-2-piperazin-1-yl-1H-indole-3-carboxaldehyde] | 26
O=Cc1c(N2CCNCC2)n(-c2ccc(Oc3ccccc3)cc2)c2ccccc12 [Example 52, 1(4-Phenoxyphenyl)-2-(piperazin-1-y)l-1H-indole-3-carboxaldehyde] | 42.2
O=Cc1c(N2CCNCC2)n(-c2ccc(Br)cc2)c2ccccc12 [Example 11B-5, 2-(Piperazin-1-yl)-1-(4-bromophenyl)-1H-indole-3-carboxaldehyde] | 3
CCCCc1ccc(-n2c(N3CCNCC3)c(C=O)c3ccccc32)cc1 [Example 61, 1-(4-Butylphenyl-2-(piperazin-1-yl)-1H-indole-3-carboxaldehyde Hydrochloride] | 2.7
O=Cc1c(N2CCNCC2)n(-c2cccc(F)c2)c2ccccc12 [Example 11B-10, 2-(Piperazin-1-yl)-1-(3-fluorophenyl)-1H-indole-3-carboxaldehyde] | 2.5
O=Cc1c(N2CCN(CCO)CC2)n(-c2ccccc2)c2ccccc12 [Example 41, 2-[4-(2-Hydroxethyl)piperazin-1-yl]-1-phenyl-1H-indole-3-carboxaldehyde Hydrochloride] | 43.1
O=Cc1c(N2CCNCC2)n(-c2cccc([N+](=O)[O-])c2)c2ccccc12 [Example 11B-1, 2-(Piperazin-1-yl)-1-(3-nitrophenyl)-1H-indole-3-carboxaldehyde] | 2.5
O=Cc1c(N2CCNCC2)n(-c2cccc(Cl)c2)c2ccccc12 [Example 55] | 4.1
O=Cc1c(N2CCNCC2)n(-c2ccc(F)c(Cl)c2)c2ccccc12 [Example 11B-7, 2-(Piperazin-1-yl)-1-(3-chloro-4-fluorophenyl)-1H-indole-3-carboxaldehyde] | 4
O=Cc1c(N2CCSCC2)n(-c2ccccc2)c2ccccc12 [Example 1, 1-Phenyl-2-(thiomorphin-4-yl)-1H-indole-3-carboxaldehyde] | 15.1
